Results reported in patent US20090209485A1, “MODULATING ANGIOGENESIS WITH NOD FACTORS SUCH AS GLUCOSAMINE OLIGOSACCHARIDES” (priority 2005, published 2009).

What was measured:
Format in all cases: cell-based
rat aorta [1] = assay: Rat aorta angiogenesis assay (vessel outgrowth from aorta fragments in fibrin gel)
Procedure: Thoracic aortas were excised from three to nine month-old female Fischer rats, rinsed in Hanks balanced salt solution containing 2.5 μg/ml amphotericin B (Sigma, St Louis, Mo.), cleaned of periadventitial fibroadipose tissue and cross-sectioned at 1 mm intervals. The fragments were freed of residual clots. Dissecting and sectioning of the vessels was performed with the aid of a dissecting microscope.
Assays were performed in 48-well culture plates (Costar, Cambridge, Mass.). Five hundred microlitres of 3 mg/ml fibrinogen (bovine plasma, Calbiochem, La Jolla, Calif.) in serum free-Medium 199 (GibcoBRL) was added to each well with 5 μg/ml of aprotinin (Sigma) to prevent fibrinolysis by the vessel fragments. One vessel fragment was placed in the centre of the well and 15 μl of thrombin (50 NIH U/ml in 0.15M NaCl: bovine plasma: Sigma St Louis, Mo.) was added to the well and mixed rapidly with the fibrinogen. Fibrin gel formation usually occurred within 30 seconds and ideally the vessel fragment remained suspended in the centre of the gel. After gel formation, 0.5 ml/well of Medium M199 supplemented with 20% fetal calf serum (FCS) (Sigma), 0.1% 6-aminocaproic acid, 1% L-glutamine, 1%-amphotericin B and 0.6% gentamycin was added. The substances tested for angiogenesis modulating activity (compounds PI-88, 1, 2, 3, 4, 5, 6 and 7) were dissolved in 50% acetonitrile in ultrapure water and diluted at least 1:100 in the supplemented medium M199. Immediately after embedding of vessel fragment in the fibrin gels, 0.5 ml of medium containing the test substance was added to each well and each treatment was performed in six wells. Control cultures received medium without the test substance. Vessels were cultured at 37° C. in 5% CO2 in air for five days and the medium was changed on day four. Vessel growth was quantified manually under 40× magnification on day five, with growth being estimated as the percentage of the field (×40) around the vessel fragment that was occupied by vessel outgrowths.

[2] = system: HUVEC (human umbilical vein endothelial cells); assay: HUVEC assay: tube formation on matrigel; details: 100 μg/ml, overnight incubation; for Inhibition of HUVEC cell “tiling” and/or change in tube morphology+/−: Matrigel + HUVEC
Procedure: HUVEC (human umbilical vein endothelial cells) form tubes on a matrigel support. The tubes form a “paving tile” formation after overnight incubation. Nod factor and derivative thereof were added at 100 μg/ml to determine if they inhibited tube formation and/or caused a change in tube morphology.

Mouse Aorta = assay: Mouse aorta angiogenesis assay (vessel outgrowth from aorta fragments in fibrin gel); details: Table 5
Procedure: Thoracic aortas were excised from 6-8 week old female C57 BL/6 mice, rinsed in Hanks balanced salt solution containing 2.5 μg/ml amphotericin B (Sigma, St Louis, Mo.) cleaned of periadventitial fibroadipose tissue and cross-sectioned at 1 mm intervals. The fragments were freed of residual clots. Dissecting and sectioning of the vessels was performed with the aid of a dissecting microscope. Assays were performed in 48-well culture plates (Costar, Cambridge, Mass.). Five hundred microlitres of 3 mg/ml fibrinogen (bovine plasma, Calbiochem, La Jolla, Calif.) in serum free-Medium 199 (GibcoBRL)) was added to each well with 5 ug/ml of aprotinin (Sigma) to prevent fibrinolysis by the vessel fragments. One vessel fragment was placed in the centre of the well and 15 ul of thrombin (50 NIH U/ml in 0.15M NaCl: EC 3.4.21.5 bovine plasma: Sigma St Louis, Mo.) was added to the well and mixed rapidly with the fibrinogen. Fibrin gel formation usually occurred within 30 seconds and ideally the vessel fragment remained suspended in the centre of the gel. […] Vessel growth was quantified manually under 40× magnification on day 7, with growth being estimated as the percentage of the field (×40) around the vessel fragment that was occupied by vessel outgrowths (see Table 5). • ^§Brown, K. J., Maynes, S. F., Bezos, A., Maguire, D. J., Ford, M. D., & Parish, C. […]

rat aorta [3] = assay: Rat aorta angiogenesis assay (vessel outgrowth from aorta fragments in fibrin gel); details: Table 4, day 6, concentration not given
[4] = Table 1, 10 μg/mL, % of field occupied by vessel outgrowths, control 82 ± 3.2
[5] = Table 1, 100 μg/mL, % of field around vessel fragment occupied by vessel outgrowths, control 82 ± 3.2
[6] = Table 1, 100 μg/mL, '+' = growth above control
[7] = Table 3, Assay 1, testing at 100 μg/mL
[8] = Table 3, Assay 2, testing at 100 μg/mL, '+' = growth above control
[9] = Table 3, Assay 3, testing at 100 μg/mL, '+' = growth above control
[10] = Table 3, Assay 4, testing at 10 μg/mL
[11] = Table 3, Assay 5, testing at 10 μg/mL
[12] = Table 4, Assay 1, day 5, control growth 27%, concentration not given
[13] = Table 4, Assay 2, day 5, control growth 48%, concentration not given
[14] = Table 1, 10 μg/mL, '+' = growth above control

Row | Molecule | % Growth (rat aorta [1]; [4]) [%] | % Growth (rat aorta [1]; [5]) [%] | Inhibition of HUVEC cell “tiling” and/or change in tube morphology+/− [2] | % Inhibit. (rat aorta [1]; [6]) [%] | % Inhibition (rat aorta [1]; [7]) [%] | % Inhibition (rat aorta [1]; [8]) [%] | % Inhibition (rat aorta [1]; [9]) [%] | % Inhibition (rat aorta [1]; [10]) [%] | % Inhibition (rat aorta [1]; [11]) [%] | % Inhibition (rat aorta [1]; [13]) [%] | % Inhibition (rat aorta [3]; Assay 2, control growth 63%) [%] | also measured
1 | CO[C@@H]1[C@H](OC[C@H]2OC(O)[C@H](NC(C)=O)[C@@H](O)[C@@H]2O[C@@H]2O[C@H](CO)[C@@H](O[C@@H]3O[C@H](CO)[C@@H](O[C@@H]4O[C@H](CO)[C@@H](O[C@@H]5O[C@H](CO)[C@@H](O)[C@H](O)[C@H]5N)[C@H](O)[C@H]4NC(C)=O)[C@H](O)[C@H]3NC(C)=O)[C@H](O)[C@H]2NC(C)=O)O[C@@H](C)[C@@H](O)[C@H]1O (some centres unmarked) [Compound 7] | 94 ± 4.0 | 90 ± 6.3 | Yes |  |  |  |  |  |  |  |  | 
2 | PI-88 [reference compound] |  | 25 ± 5.4 | Yes | 69 | 82 | 77 | 68 | 18 | 14 | 66 | 70 | % Inhibit. (rat aorta [1]; Table 2, 100 μg/mL): 47%; % Growth (rat aorta [1]; Table 2, 100 μg/mL, control 74 ± 3.8): 39 ± 6.1%; % Inhibition (rat aorta [1]; [12]): 91%; % Inhibition (rat aorta [1]; Table 4, Assay 1, day 7, control growth 68%, concentration not given): 77%; % Inhibition (rat aorta [1]; Table 4, Assay 2, day 7, control growth 83%, concentration not given): 68%; % Inhibition (Mouse Aorta; 10 μg/ml): 30%; % Inhibition (Mouse Aorta; 100 μg/ml): 93%; effect on HUVEC tube formation ([2]; matrigel): affected tube formation; % Inhibition (rat aorta [3]; Assay 1, control growth 43%): 80%
3 | CC(=O)N[C@H]1[C@H](O[C@H]2[C@H](O)[C@@H](NC(C)=O)[C@H](O[C@H]3[C@H](O)[C@@H](NC(C)=O)[C@H](O[C@H]4[C@H](O)[C@@H](NC(C)=O)C(O)O[C@@H]4CO[C@@H]4O[C@@H](C)[C@@H](O)[C@@H](O)[C@@H]4O)O[C@@H]3CO)O[C@@H]2CO)O[C@H](CO)[C@@H](O[C@@H]2O[C@H](CO)[C@@H](O)[C@H](O)[C@H]2N)[C@@H]1O (some centres unmarked) [Compound 6] | 73 ± 7.5 | 53 ± 4.8 | Yes | 35 |  |  |  |  |  |  |  | % Inhibit. (rat aorta [1]; [14]): 11%
4 | CC(=O)N[C@H]1[C@H](O[C@H]2[C@H](O)[C@@H](NC(C)=O)[C@H](O[C@H]3[C@H](O)[C@@H](NC(C)=O)C(O)O[C@@H]3COS(=O)(=O)O)O[C@@H]2CO)O[C@H](CO)[C@@H](O[C@@H]2O[C@H](CO)[C@@H](O)[C@H](O)[C@H]2N)[C@@H]1O (some centres unmarked) [Compound 21] |  |  |  |  | 74 | 41 | 40 | 24 | 33 |  |  | 
5 | CC(=O)N[C@H]1C(O)O[C@H](CO)[C@@H](O[C@@H]2O[C@H](CO)[C@@H](O)[C@H](O)[C@H]2N)[C@@H]1O (some centres unmarked) [Compound 22] |  |  |  |  | 5 |  |  | 24 | 16 | 6 | 0 | % Inhibition (rat aorta [1]; [12]): 33%
6 | CC(=O)N[C@H]1[C@H](O[C@H]2[C@H](O)[C@@H](NC(C)=O)[C@H](O[C@H]3[C@H](O)[C@@H](NC(C)=O)C(O)O[C@@H]3CO[C@@H]3O[C@@H](C)[C@@H](O)[C@@H](O)[C@@H]3O)O[C@@H]2CO)O[C@H](CO)[C@@H](O[C@@H]2O[C@H](CO)[C@@H](O[C@@H]3O[C@H](CO)[C@@H](O)[C@H](O)[C@H]3NC(=O)Cc3ccccc3)[C@H](O)[C@H]2NC(C)=O)[C@@H]1O (some centres unmarked) [Compound 24] |  |  |  |  |  |  |  | 3 | 1 | 6 | 8 | 
7 | CC(=O)N[C@H]1[C@H](O[C@H]2[C@H](O)[C@@H](NC(C)=O)[C@H](O[C@H]3[C@H](O)[C@@H](NC(C)=O)[C@H](O[C@H]4[C@H](O)[C@@H](NC(C)=O)C(O)O[C@@H]4CO[C@@H]4O[C@@H](C)[C@@H](O)[C@@H](O)[C@@H]4O)O[C@@H]3CO)O[C@@H]2CO)O[C@H](CO)[C@@H](O[C@@H]2O[C@H](CO)[C@@H](O)[C@H](O)[C@H]2N=[N+]=[N-])[C@@H]1O (some centres unmarked) [Compound 26] |  |  |  |  |  | 3 | 15 |  |  |  |  | 
8 | CC(=O)N[C@H]1[C@H](O[C@H]2[C@H](O)[C@@H](NC(C)=O)[C@H](O[C@H]3[C@H](O)[C@@H](NC(C)=O)[C@H](O[C@H]4[C@H](O)[C@@H](NC(C)=O)C(O)O[C@@H]4CO)O[C@@H]3CO)O[C@@H]2CO)O[C@H](CO)[C@@H](O[C@@H]2O[C@H](CO)[C@@H](O)[C@H](O)[C@H]2N)[C@@H]1O (some centres unmarked) [Compound 1] | 80 ± 8.4 | 53 ± 8.0 | Yes | 35 |  |  |  |  |  |  |  | % Inhibit. (rat aorta [1]; [14]): 2.4%
9 | CC(=O)N[C@H]1[C@H](O[C@H]2[C@H](O)[C@@H](NC(C)=O)[C@H](O[C@H]3[C@H](O)[C@@H](NC(C)=O)C(O)O[C@@H]3CO)O[C@@H]2CO)O[C@H](CO)[C@@H](O[C@@H]2O[C@H](CO)[C@@H](O)[C@H](O)[C@H]2N)[C@@H]1O (some centres unmarked) [Compound 23] |  |  |  |  |  | 66 | 29 | 14 | 24 |  |  | 
10 | CCCCCCC=CCCCOc1cccc(C(=O)N[C@H]2[C@H](O[C@H]3[C@H](O)[C@@H](NC(C)=O)[C@H](O[C@H]4[C@H](O)[C@@H](NC(C)=O)[C@H](O[C@H]5[C@H](O)[C@@H](NC(C)=O)[C@H](O[C@H]6[C@H](O)[C@@H](NC(C)=O)C(O)O[C@@H]6CO[C@@H]6O[C@@H](C)[C@@H](O)[C@@H](O)[C@@H]6O)O[C@@H]5CO)O[C@@H]4CO)O[C@@H]3CO)O[C@H](CO)[C@@H](O)[C@@H]2O)c1 (some centres unmarked) [Compound 25] |  |  |  |  |  | 76 | 73 | 24 | 21 |  |  | % Inhibition (rat aorta [1]; Table 3, Assay 6, testing at 1.0 μg/mL): 8%; % Inhibition (rat aorta [1]; Table 3, Assay 7, testing at 1.0 μg/mL): 3%
